# Assay results published in PubChem BioAssay (NCI).
# Values joined by “and” are separate entries in the source; they are usually repeats but may differ in a detail not shown here. Equal entries are not always repeated.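 Exposure lasted 48 hours, with cells grown in 96-well plates and compounds tested at five concentrations. GI50: concentration for 50% inhibition of growth. TGI: concentration producing complete growth inhibition.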
# Tests used:
# Experiment in all cases: NCI tumour cell line growth inhibition, 48 h
# NCI-H460 lung = system: NCI-H460 lung
# EKVX NSCLC = system: EKVX NSCLC
# RXF 393 renal = system: RXF 393 renal
# HT29 colon = system: HT29 colon
# COLO 205 colon = system: COLO 205 colon
# KM12 colon = system: KM12 colon
# 786-0 renal = system: 786-0 renal
# ACHN renal = system: ACHN renal
# OVCAR-5 ovarian = system: OVCAR-5 ovarian
# SF-295 CNS = system: SF-295 CNS
SMILES,TGI (NCI-H460 lung) [µM],TGI (EKVX NSCLC),TGI (RXF 393 renal),TGI (HT29 colon),TGI (COLO 205 colon) [µM],TGI (KM12 colon),TGI (786-0 renal),TGI (ACHN renal),TGI (OVCAR-5 ovarian) [µM],TGI (SF-295 CNS),GI50 (NCI-H460 lung),GI50 (EKVX NSCLC) [µM],GI50 (RXF 393 renal),GI50 (HT29 colon),GI50 (COLO 205 colon) [µM],GI50 (KM12 colon),GI50 (786-0 renal),GI50 (ACHN renal),GI50 (OVCAR-5 ovarian) [µM],GI50 (SF-295 CNS) [µM]
COC(=O)C1=C(CS(=O)c2ccc([N+](=O)[O-])cc2[N+](=O)[O-])C2C=CC1C2 (stereo not given),> 100,> 100 µM,52.1 µM,35.2 µM,41.5,> 100 µM,62.6 µM,39.5 µM,> 100,> 100 µM,,,,,,,,,,
Cc1ncc(C(=O)Nc2ccc(CN3CCN(C)CC3)c(C(F)(F)F)c2)cc1C#Cc1ccc(N)nc1,1.84,3.85 µM,0.892 µM,1.16 µM,4.55,1.21 µM,4.3 µM,0.995 µM,5.3,4.07 µM,0.19 µM,0.504,0.197 µM,0.129 µM,0.239,0.0135 µM,0.733 µM,0.117 µM,0.412,0.908
N/C(=N\NS(=O)(=O)c1ccccc1)Oc1ccc(Br)cc1Br,> 100,> 100 µM,> 100 µM,> 100 µM,> 100,> 100 µM,> 100 µM,> 100 µM,> 100,> 100 µM,,,,,,,,,,
NCCCCC1NC(=O)C(CC(=O)O)NC(=O)CNC(=O)C(CCCN=C(N)N)NC(=O)C(N)CSSCC(C(=O)O)NC(=O)C(CC(=O)O)NC(=O)C2CCCN2C(=O)CNC1=O (stereo not given),> 100,> 100 µM,> 100 µM,> 100 µM,> 100,> 100 µM,> 100 µM,> 100 µM,> 100,> 100 µM,> 100 µM,> 100,> 100 µM,> 100 µM,> 100,> 100 µM,> 100 µM,> 100 µM,> 100,> 100
CC1(c2cc3c(cc2Br)OCO3)SCCCS1,> 100,> 100 µM,37.3 µM,> 100 µM,> 100,> 100 µM,> 100 µM,> 100 µM,> 100,> 100 µM,,,,,,,,,,
CC(C)(O)/C=C/C(=O)[C@](C)(O)[C@H]1[C@H](O)C[C@@]2(C)[C@@H]3CC=C4[C@@H](C[C@H](O)C(=O)C4(C)C)[C@]3(C)C(=O)C[C@]12C,20.4,0.833 µM and 3.47 µM,0.408 µM and 0.263 µM,18.3 µM,,25 µM,0.939 µM and 0.362 µM,0.931 µM and 8.45 µM,,0.629 µM and 2.61 µM,0.0509 µM,0.477,0.187 µM,0.0623 µM,0.0919,0.948 µM,0.218 µM,0.197 µM and 1.28 µM,0.692,0.264
C#CCNC(=S)N/N=C(\C)c1ccccn1,5.22,> 100 µM,4.9 µM,> 100 µM,> 100,> 100 µM,> 100 µM,> 100 µM,> 100,> 100 µM,0.949 µM,0.595,0.641 µM,0.234 µM,0.184,0.426 µM,0.354 µM,0.313 µM,0.885,0.706
O=[N+]([O-])c1nccn1CC(O)CN1CCCCC1 (stereo not given),> 100,> 100 µM,> 100 µM,> 100 µM,> 100,> 100 µM,> 100 µM,> 100 µM,> 100,> 100 µM,,,,,,,,,,
C=C/C(C)=C/C[C@]1(C)[C@H](C)[C@@H](OC(=O)CCC)[C@H](O)[C@@]23C(=C[C@H](OC)C[C@@H]12)[C@@H](OC(=O)CCC)O[C@H]3OC(C)=O,3.52,2.61 µM,0.696 µM,1.42 µM,1.73,1.96 µM,0.888 µM,0.619 µM,2.54,2.48 µM,1.74 µM,0.987,0.262 µM,0.343 µM,0.444,0.55 µM,0.287 µM,0.234 µM,0.576,0.992
COc1cc2ncnc(-n3ncc4cc(NC(=O)Nc5ccc(Cl)c(Cl)c5)ccc43)c2cc1OC,4.57,9.84 µM,3.29 µM,4.29 µM,5.58,9.66 µM,3.52 µM,3.25 µM,4.31,2.94 µM,2.08 µM,3.06,1.53 µM,1.98 µM,2.32,0.0514 µM,1.56 µM,1.45 µM,1.83,1.38
CN(C)c1ccc(/C=C2\N=C(c3ccccc3)N(c3cc(C(F)(F)F)ccc3Cl)C2=O)cc1,> 100,> 100 µM,> 100 µM,> 100 µM,> 100,> 100 µM,> 100 µM,> 100 µM,> 100,> 100 µM,> 100 µM,> 100,> 100 µM,> 100 µM,> 100,> 100 µM,> 100 µM,> 100 µM,> 100,> 100
Cn1cccc1-c1cc(-c2ccccc2)[nH]c(=O)c1C#N,> 100,> 100 µM,> 100 µM,> 100 µM,> 100,> 100 µM,> 100 µM,> 100 µM,> 100,> 100 µM,> 100 µM,37.3,> 100 µM,> 100 µM,> 100,> 100 µM,> 100 µM,> 100 µM,> 100,> 100
Cc1c2c(cc3c1C(=O)C(=O)C1=C3OC[C@@H]1C)C(C)(C)CCC2,28.1,58.7 µM,33.5 µM,32.5 µM,20.4,24.7 µM,75.9 µM,38.3 µM,40.2,27.8 µM,,,,,,,,,,
Cc1nc2ccc(Br)cc2c(=O)n1-c1ccc(NC2OCC(O)C(O)C2O)cc1 (stereo not given),> 100,> 100 µM,51.4 µM and > 100 µM,48.7 µM and > 100 µM,> 100,68.4 µM and > 100 µM,42.2 µM and > 100 µM,> 100 µM,> 100,> 100 µM,47.2 µM and > 100 µM,,32.1 µM and > 100 µM,20.7 µM and > 100 µM,> 100,26.3 µM and > 100 µM,19.1 µM and > 100 µM,35.6 µM and > 100 µM,,
COc1ccc(NC(=O)/C=C(C)/C=C/C=C(C)/C=C/C2=C(C)CCCC2(C)C)cc1,26.9,29.2 µM,26.2 µM,10.2 µM,10.9,14.5 µM,28.7 µM,12.4 µM,30.7,27.2 µM,12.8 µM,14.9,12.8 µM,3.22 µM,3.52,4.4 µM,14.4 µM,3.21 µM,15.9,13.3
O=S1(=O)N(Cc2ccccc2)[C@@H](Cc2ccccc2)[C@H](O)[C@H](O)[C@H](Cc2ccccc2)N1Cc1ccccc1,7.91,9.86 µM,5.24 µM,5.64 µM,10.4,5.84 µM,6.86 µM,> 20 µM,9.1,5.68 µM,3.41 µM,3.43,2.6 µM,2.63 µM,4.26,2.94 µM,3.24 µM,6.01 µM,3.57,2.62
CCN1CCN(c2cc(C)nc(N(CCCNc3ccnc4cc(Cl)ccc34)Cc3ccc4c(c3)OCO4)n2)CC1,11.2,> 100 µM,3.38 µM,5.79 µM,3.39,> 100 µM,3.8 µM,10.6 µM,> 100,3.82 µM,3.07 µM,4.56,1.52 µM,1.95 µM,1.72,4.14 µM,1.81 µM,3.16 µM,5.32,1.91
Oc1c(Cl)cc(Cl)c2ccc(Cn3cc(-c4cc(C(F)(F)F)cc(C(F)(F)F)c4)nn3)nc12,35.2,21 µM,1.97 µM,5.1 µM,2.89,23.4 µM,4.47 µM,2.5 µM,9.23,31 µM,18.2 µM,7.65,0.555 µM,2.04 µM,1.35,10.5 µM,1.97 µM,1.25 µM,2.9,17
O=C1C(=O)N(c2ccc(Cl)cc2)C(=O)C(=O)C1c1nc2ccccc2s1,> 100,> 100 µM,> 100 µM,> 100 µM,> 100,> 100 µM,> 100 µM,> 100 µM,> 100,> 100 µM,,,,,,,,,,
NC(=O)c1cc(N(CCO)CCO)c([N+](=O)[O-])cc1[N+](=O)[O-],> 100,> 100 µM,> 100 µM,> 100 µM,> 100,> 100 µM,> 100 µM,> 100 µM,> 100,> 100 µM,,,,,,,,,,
CCC(C)Oc1nc2c(c(=O)n(C)c(=O)n2C)n1C (stereo not given),> 100,> 100 µM,> 100 µM,> 100 µM,> 100,> 100 µM,> 100 µM,> 100 µM,> 100,> 100 µM,> 100 µM,> 100,> 100 µM,> 100 µM,> 100,> 100 µM,> 100 µM,> 100 µM,> 100,> 100
CCOc1ccc(/C(C=O)=C(\Cl)c2ccc(OC)cc2)cc1,> 100,> 100 µM,> 100 µM,> 100 µM,> 100,> 100 µM,> 100 µM,> 100 µM,> 100,> 100 µM,,,,,,,,,,
O=C(Nc1ccc(-n2ccc3c(NC(=O)c4ccccc4)ncnc32)cc1)c1cccc(C(F)(F)F)c1,12.3,22.7 µM,19.9 µM,15.7 µM,20.9,16.7 µM,21.9 µM,23.6 µM,31.7,16.9 µM,0.0837 µM,6.38,3.39 µM,0.457 µM,4.1,0.626 µM,2.91 µM,1.09 µM,6.18,1.07
c1cc(-c2nnc(SSc3ncnc4nc[nH]c34)o2)ccn1,> 100,> 100 µM,> 100 µM,> 100 µM,23.8,> 100 µM,> 100 µM,> 100 µM,> 100,12.8 µM,5.15 µM,24.4,6.59 µM,2.42 µM,3.3,2.61 µM,0.986 µM,4.07 µM,3.1,0.51
